Where no end group is shown, it is not given here.
How the values were obtained:
[1] = test system: vTreg53 Treg cells; assay: Proliferation and activation of primary vTreg53 TCR-tg Treg cells in vitro; assay type: cell-based, mouse; details: 3 days; for proliferation: compared with no peptide / other SPs; for potency on primary vTreg53 Treg cells: in vitro
Excerpt: Figure 4. SPs induce proliferation and activation of vTreg53 Treg cells in vitro and in vivo. (A–D) Proliferation and activation of vTreg53 Treg cells by different concentrations of SPs for 3 days in vitro (n = 3). (A) Representative flow cytometric plot of cell division. (B) Summary of cell proliferation. (C) Mean flourescence intensity (MFI) of CD44 staining in clonotype^+ Treg cells. (D) MFI of CD62L staining in clonotype^+ Treg cells. (E) Proliferation of transferred CD45.2^+ vTreg53 Treg cells in the spleen of CD45.1^+ B6 recipient mice immunized s.c. with CFA or CFA/Fat1562 at day 3 (n = 3). (F) Expansion of transferred CD45.2^+ vTreg53 Treg cells in the Spl/LNs or VAT of CD45.1^+ B6 recipient mice that were primed with CFA/fat1562 s.c. and boosted with IFA/Fat1562 i.p. (n ≥ 3). Data are mean ± SD. Data shown are representative of at least two independent experiments. Figure 4—figure supplement 1. Single cell TCR sequencing (scTCR-seq) analyses of fat1562-reactive endogenous Treg cells following immunization. (A) Scheme of the experiment. (B) Flow cytometric analysis of fat1562/A^b -PE tetramer+ Treg cells in Spl/LNs (enriched by anti-PE beads) or VAT (not enriched) of mice immunized with adjuvant alone or adjuvant/fat1562. Plot is a representative of mice that did show detectable expansion of tetramer+ Tregs. (C) Numbers of fat1562/A^b -PE tetramer+ Treg cells in Spl/LNs or VAT of mice immunized with adjuvant alone or adjuvant/fat1562 (D) Summary of the frequency and CDR3 sequences of expanded fat1562/A^b -PE tetramer+ Treg clones. [drawing 5] TEXT PRINTED IN THE PICTURE: (A) Fat7: 51 (1μM); 32.1 (0.1μM); 16.4 (0.01μM) | (A) Fat15: 59.7 (1μM); 54.4 (0.1μM); 37.1 (0.01μM) | (A) Fat1562: 61.6 (1μM); 57.6 (0.1μM); 51.8 (0.01μM) | (A) Fat2564: 44.2 (1μM); 32.5 (0.1μM); 19.3 (0.01μM) | (E) CFA: 9.6 | (E) CFA/Fat1562: 76.8 | (F) adjuvant: 0.1 (Spl/LN); 1.5 (VAT) | (F) adjuvant/Fat1562: 0.7 (Spl/LN); 38.1 (VAT) DOUBTS OF THE COPYIST ABOUT THIS PICTURE: Panels A, E, F: the gate numbers in the flow cytometry plots are printed without a measure or unit; they are copied as bare numbers. / Panel A: the row 'no peptide' (15.7, 17.1, 17.2) is a control without a substance and was left out. / Panel A, Fat1562, 1μM: the number is crossed by the histogram line; 61.6 is the best reading. / Panel E, CFA/Fat1562: the number is crossed by the histogram line; 76.8 is the best reading.
Tregs from pooled LNs of Tg^+ Foxp3-GFP^KI/y mice were labeled with CellTrace Violet dye (ThermoFisher Scientific), cultured in complete RPMI medium in the presence of 100 U/ml recombinant mouse IL-2 (peprotech), and stimulated by syngeneic APCs loaded with the indicated concentrations of different peptides. 3 days later, the proliferation and activation of clonotype^+ Treg cells was determined by flow cytometric analysis of the dilution of the CellTrace Violet dye, upregulation of CD44 expression, and downregulation of CD62L levels.

[2] = test system: vTreg53 Treg cells; assay: Expansion of transferred vTreg53 Treg cells in Spl/LN or VAT after prime and boost; assay type: in vivo, mouse; details: compared with adjuvant alone, CFA s.c. then IFA i.p.
Excerpt: Figure 4. SPs induce proliferation and activation of vTreg53 Treg cells in vitro and in vivo. (A–D) Proliferation and activation of vTreg53 Treg cells by different concentrations of SPs for 3 days in vitro (n = 3). (A) Representative flow cytometric plot of cell division. (B) Summary of cell proliferation. (C) Mean flourescence intensity (MFI) of CD44 staining in clonotype^+ Treg cells. (D) MFI of CD62L staining in clonotype^+ Treg cells. (E) Proliferation of transferred CD45.2^+ vTreg53 Treg cells in the spleen of CD45.1^+ B6 recipient mice immunized s.c. with CFA or CFA/Fat1562 at day 3 (n = 3). […]
To assess early Treg proliferation following peptide stimulation in vivo, 0.4 million Treg cells were sorted from pooled Spl and LNs of 6-8wk-old male CD45.2^+ Tg^+ Foxp3-GFP^KI/y mice by Moflo, labeled by the CellTrace Violet dye (ThermoFisher Scientific), and were i.v.-injected into 6-8wk old male B6.CD45.1^+ mice. […] Proliferation of clonotype^+ Tregs in the spleen was determined three days later. […] Six weeks later, the recipient mice were immunized with 200 µg CFA/peptides s.c. on the lower back, and one week later were boosted with 100 μg IFA/peptides i.p. After another week, clonotype^+ CD45.2^+ Treg cells from the Spl/LNs or VAT of recipient mice were analyzed by flow cytometry and double-sorted for ultra-low-input RNA-seq. […]

Row | Sequence | CD44 up-regulation ([1]; 0.01 µM, compared with no peptide) | proliferation ([1]; 0.01 µM) | CD62L down-regulation ([1]; 1 µM, n = 3) | potency on primary vTreg53 Treg cells [1] | CD62L down-regulation ([1]; 0.01 µM) | expansion of clonotype^+ Treg cells in VAT [2] [fold]
1 | LMFKGPHAVQAVG [Fat7] | unable to promote any further proliferation and up-regulation of CD44 expression | unable to promote any further proliferation | dampened CD62L levels only moderately |  |  | 
2 | TMYKNLRPWAATG [Fat2564] |  |  |  | relatively weak potency, which was comparable with that of Fat7 |  | 
3 | TMYKNPRPMAATG [Fat1562] |  | strongest proliferation | strongest down-regulation of CD62L | consistently the strongest SP | strongest proliferation and down-regulation of CD62L | > 25

Reference: article PMC7440915, “Discovery of surrogate agonists for visceral fat Treg cells that modulate metabolic indices in vivo” (eLife, 2020)
